These results are taken from patent US4272540A, “14-Methoxymorphinan-6-one compounds and therapeutic methods of treating pain and drug dependence with them” (SISA, Incorporated, priority 1979, dated 1981).

Counter-ions that a name gives are not always drawn. Like-named read-outs stand apart in the source and are kept apart here.

In one test the test system is mice. Kind of test: Test A: acetic acid mouse writhing test (analgesic effects). The test is classed as in vivo, male CD-1 mice. Conditions: for ED50: Mus musculus, sc. How it is done: (A) Analgesic effects upon mice (acetic acid writhing test).
(§1) The analgesic effects of test compounds were determined in mice by use of the acetic acid writhing test described by B. J. R. Whittle, Brit. J. Pharmacol., 22:296 (1964). In this test at least three groups of five male CD-1 mice each were given subcutaneous doses of the test drug dissolved in either distilled water or distilled water acidified with HCl depending on the solubility of the compound. In all cases, 0.4 milliliter of a 0.5% V/V acetic acid in distilled water solution was administered intraperitoneally 15 minutes post drug. The number of writhes in a 20 minute interval beginning 5 minutes after the acetic acid injection were determined and compared with the number of writes in control groups which had received only acetic acid.
Percent inhibition of writhing was calculated as: [formula]
(§2) The ED50 dose, i.e., the dose required to reduce the number of writhes by 50%, was determined graphically from a plot of % inhibition as a probit versus log dose. Confidence limits of 95% were calculated on the basis of those results falling in the range 16-84% inhibition. See Litchfield, J. T. and Wilcoxon, F., J. Pharmacol. Exp. Ther., 96, 99-113, (1949).
(§3) The results of these experiments are set out in Table I where R, R1 and R2 refer to the proceeding general formula for the compounds of the present invention. In the column under R2 CBM stands for cyclobutylmethyl, CPM for cyclopropylmethyl, THF for tetrahydrofurfuryl and DMA for dimethylallyl.

Test [1] in a line: Overall agonist/antagonist classification from Table I (Tests A and B). The test is classed as in vivo, mice (Test A); rats (Test B). Conditions: from ED50 and AD50 values of Table I. Here is the method: as §1, §2
(§4) Male albino Wistar rats (100-120 g) were used for this study. A rat's tail is so placed so as to cover a photocell. Heat is applied by a lamp in a reflector with a timer being connected to the lamp and photocell so that the timer goes on when the light is turned on and is turned off when the photocell is uncovered. A rheostat, incorporated into a heating lamp is used to adjust the intensity of the light falling on the tail of the rat such that the rat's control reaction time is from two to four seconds. Animals with a control reaction time outside this range are rejected. The rheostat adjustment is made only if a significant proportion (more than 2 out of every 10 rats) of the reaction times are outside the range of two to four seconds. Groups of five rats were used each time, and two control times were determined at 60 and 30 minutes prior to subcutaneous injection of the drug.
(§5) Thirty minutes after the last control run the test drug was given interperitoneally. This was followed ten minutes later by an ED80 dose of morphine subcutaneously. The animals were retested at 20 minutes after the morphine injection. Control animals were given vehicle and morphine only. The data were calculated as follows: [formula]
(§6) The data were plotted on log-probit paper and AD50 values, i.e., the dose required to inhibit the morphine effect by 50% within 95% condidence limits, were determined by the method of Litchfield and Wilcoxon.

The test system of a further test is rats. Kind of test: Test B: narcotic antagonist activity (modified rat tail flick test, morphine antagonism). It counts as in vivo, male albino Wistar rats. Further details: key to AD50 (Test B): inactive at dose stated: IA is intended to mean "inactive". Conditions: for ED50: Rattus norvegicus; for AD50 (Test B): inactive at dose stated: at 10 mg/kg, interperitoneally. How it is done:
(B) Narcotic antagonist activity in rats (modified rat tail flick test).
The narcotic antagonist effects of test compounds were determined by a modification of the rat tail flick procedure of Harris and Pierson (J. Pharmacol. Exp. Ther. 143:141[1964]).
as §4, §5, §6, §3
A general note: Hot-plate and tail-flick tests time the reaction to a heat stimulus.

The conditions of test [2]: prior art report; cited from earlier work.
[3] abbreviates: sc, rats, tail flick, drug interperitoneally 10 min before ED80 morphine s.c., dose inhibiting morphine effect by 50%, read-out: AD50 (Test B, narcotic antagonist activity).
Where [4] appears, read: subcutaneous, 15 min before acetic acid, dose reducing writhes by 50%, read-out: ED50 (Test A, acetic acid mouse writhing test).
Setting [5] is: rats, tail flick, drug interperitoneally 10 min before ED80 morphine s.c., dose inhibiting morphine effect by 50%.

Regarding `COc1ccc2c(c1)[C@]13CCN(CC4CC4)[C@H](C2)[C@]1(OC)[C@@H](C)CC(=O)C3.Cl` [TR-5209, 17-Cyclopropylmethyl-3,14-dimethoxy-8β-methylmorphinan-6-one Hydrochloride], the “ED50 (Test A): inactive at dose stated” value in the test on mice (at 13 mg/kg, subcutaneous) was “IA (IA is intended to mean "inactive")”. Besides, the agonist/antagonist profile entry in test [1] was “pure narcotic antagonists”. Besides, in the test with rats (setting [3]), the ED50 was determined as 0.45 mg/kg.
As to `CO[C@@]12[C@@H](C)CC(=O)C[C@@]13CCN(CC1CC1)[C@@H]2Cc1ccc(O)cc13.Cl` [TR-5210, 17-Cyclopropylmethyl-3-hydroxy-14-methoxy-8β-methylmorphinan-6-one Hydrochloride], the ED50 turned out to be 30 mg/kg in the test on mice (setting [4]); 0.004 mg/kg in the test with rats (rats, tail flick vs morphine, unit inferred, read-out: AD50 (the source's name)); 0.004 mg/kg in the test with rats (setting [3]). Besides, the agonist/antagonist profile result in test [1] (Hydrochloride) is “pure narcotic antagonist”. Besides, the “potency as narcotic antagonist relative to naloxone” value in the test with rats (naloxone as comparator) was determined as 10 times.
Regarding `COc1ccc2c(c1)[C@]13CCN(CC4CCC4)[C@H](C2)[C@]1(OC)[C@@H](C)CC(=O)C3.Cl` [TR-5211, 17-Cyclobutylmethyl-3,14-dimethoxy-8β-methylmorphinan-6-one Hydrochloride], the “ED50 (Test A): inactive at dose stated” value with mice (at 10 mg/kg, subcutaneous) was “IA (IA is intended to mean "inactive")”. Besides, in test [1], the agonist/antagonist profile entry is reported as “pure narcotic antagonists”. Further, the ED50 in the test with rats (setting [3]) is 0.41 mg/kg.
For `CO[C@@]12[C@@H](C)CC(=O)C[C@@]13CCN(CC1CCC1)[C@@H]2Cc1ccc(O)cc13` [TR-5212, 17-Cyclobutylmethyl-3-hydroxy-14-methoxy-8β-methylmorphinan-6-one Hydrochloride], in that order: “IA (IA is intended to mean "inactive")”, “pure narcotic antagonists” and 0.18 mg/kg.
As for `COc1ccc2c(c1)[C@]13CCN(CC4CCC4)[C@H](C2)[C@]1(OC)[C@H](C)CC(=O)C3.Cl` [TR-5219, 17-Cyclobutylmethyl-3,14-dimethoxy-8α-methylmorphinan-6-one Hydrochloride], the ED50 in the test on mice (setting [4]) was 15.1 mg/kg. Also, the ED50 in the test on mice (writhing, unit inferred, read-out: ED50 value) was 15.1 mg/kg. Also, in the test with mice (writhing), the “analgesic activity (in words)” value is “only a weak analgesic”. Besides, in the test with rats (rats, tail flick vs morphine), the “AD50 (Test B): inactive at dose stated” value is “IA” and the “narcotic antagonist activity (in words)” value is “not a narcotic antagonist”.
With `CO[C@@]12[C@H](C)CC(=O)C[C@@]13CCN(CC1CCC1)[C@@H]2Cc1ccc(O)cc13` [TR-5249, 17-Cyclobutylmethyl-3-hydroxy-14-methoxy-8α-methylmorphinan-6-one], the ED50 was 0.14 mg/kg in the test with mice (setting [4]) and 3 mg/kg in the test with rats (setting [3]).
As for `CO[C@@]12[C@@H](C)CC(O)C[C@@]13CCN(CC1CC1)[C@@H]2Cc1ccc(O)cc13` (stereo partly drawn) [TR-5250, 17-Cyclopropylmethyl-14-methoxy-8β-methylmorphinan-3,6-diol Hydrochloride], the “ED50 (Test A): inactive at dose stated” value with mice (at 10 mg/kg, subcutaneous) was “IA (IA is intended to mean "inactive")”. Also, in the test with rats (setting [3]), the ED50 is 0.32 mg/kg. In addition, the “less active as narcotic antagonist than TR-5210” value in the test on rats (rats, tail flick vs morphine, compared with TR-5210) is recorded as ~2 orders of magnitude.
Regarding `CO[C@@]12[C@H](C)CC(=O)C[C@@]13CCN(CC1CC1)[C@@H]2Cc1ccc(O)cc13.Cl` [TR-5284, 17-Cyclopropylmethyl-3-hydroxy-14-methoxy 8α-methylmorphinan-6-one Hydrochloride], the “ED50 (Test A): inactive at dose stated” value in the test on mice (at 10 mg/kg, subcutaneous) is “IA (IA is intended to mean "inactive")”. Besides, in test [1], the agonist/antagonist profile entry was “pure narcotic antagonists”. In the test with rats (setting [3]), the ED50 is less than 3 mg/kg. For the same compound, the “narcotic antagonist activity (in words)” value with rats (rats, tail flick vs morphine) is “is a narcotic antagonist”.
For `CO[C@@]12[C@H](C)CC(O)C[C@@]13CCN(CC1CC1)[C@@H]2Cc1ccc(O)cc13.Cl` (stereo partly drawn) [TR-5285, 17-Cyclopropylmethyl-14-methoxy-8α-methylmorphinan-3,6-diol Hydrochloride], the ED50 with mice (setting [4]) and in the test with rats (setting [3]) was more than 10 mg/kg in each case. In addition, the agonist/antagonist profile result in test [1] was “not active as an analgesic or a narcotic antagonist”.
As for `COc1ccc2c(c1)[C@]13CCN(CC4CCC4)[C@H](C2)[C@]1(OC)CCC(=O)C3` [TR-5296, 17-Cyclobutylmethyl-3,14-dimethoxymorphinan-6-one Hydrochloride], in the test on mice (setting [4]), the ED50 is 0.77 mg/kg. For the same compound, the agonist/antagonist profile result in test [1] was “pure analgesics”. Moreover, the “AD50 (Test B): inactive at dose stated” value with rats (rats, tail flick vs morphine) came out at 1A.
Turning to `COc1ccc2c(c1)[C@]13CCN(CC4CC4)[C@H](C2)[C@]1(OC)CCC(=O)C3` [TR-5305, 17-Cyclopropylmethyl-3,14-dimethoxymorphinan-6-one], the ED50 in the test on mice (setting [4]) stood at 0.98 mg/kg. For the same compound, in test [1], the agonist/antagonist profile entry was “mixed analgesic (agonist) and narcotic antagonist activity”. Also, in the test on rats (setting [5]), the “AD50 (Test B, narcotic antagonist activity)” value worked out at 1.60 mg/kg.
For `CO[C@@]12CCC(=O)C[C@@]13CCN(CC1CCC1)[C@@H]2Cc1ccc(O)cc13` [TR-5306, 17-Cyclobutylmethyl-3-hydroxy-14-methoxymorphinan-6-one Hydrochloride], the ED50 in the test with mice (setting [4]) amounted to 0.007 mg/kg. The agonist/antagonist profile entry in test [1] was “pure analgesics”. In addition, in the test with rats (rats, tail flick vs morphine), the “AD50 (Test B): inactive at dose stated” value is “IA”.
For `CO[C@@]12[C@H](C)CC(=O)C[C@@]13CCN(CC=C(C)C)[C@@H]2Cc1ccc(O)cc13.Cl` [TR-5310, 17-Dimethylallyl-3-hydroxy-14-methoxy-8α-methylmorphinan-6-one Hydrochloride], in that order: 0.18 mg/kg, “pure analgesics” and “IA”.
Turning to `CO[C@@]12CCC(=O)C[C@@]13CCN(CC1CC1)[C@@H]2Cc1ccc(O)cc13.Cl` [TR-5325, 17-Cyclopropylmethyl-3-hydroxy-14-methoxymorphinan-6-one Hydrochloride], the ED50 in the test with mice (setting [4]) is 0.45 mg/kg; with rats (setting [3]) it was 0.35 mg/kg. In addition, the agonist/antagonist profile result in test [1] (Hydrochloride) was “mixed analgesic (agonist) and narcotic antagonist activity”.
Regarding `COc1ccc2c(c1)[C@]13CCN(CC4CCCO4)[C@H](C2)[C@]1(OC)CCC(=O)C3.Cl` (stereo partly shown) [TR-5326, 3,14-Dimethoxy-17-tetrahydrofurfurylmorphinan-6-one Hydrochloride], the ED50 with mice (setting [4]) was determined as 0.16 mg/kg. Besides, in test [1], the agonist/antagonist profile result is “pure analgesics”. The “AD50 (Test B): inactive at dose stated” value in the test on rats (rats, tail flick vs morphine) was “IA”.
Turning to `COc1ccc2c(c1)[C@]13CCN(CC4CCCO4)[C@H](C2)[C@]1(OC)[C@H](C)CC(=O)C3.Cl` (stereo partly drawn) [TR-5327, 17-Tetrahydrofurfuryl-3,14-dimethoxy-8α-methylmorphinan-6-one Hydrochloride], in the test with mice (setting [4]), the ED50 worked out at 1.85 mg/kg. Further, the agonist/antagonist profile entry in test [1] was “pure analgesics”. The “AD50 (Test B): inactive at dose stated” value with rats (rats, tail flick vs morphine) was “IA”.
Taken in the same sequence, the figures for `CO[C@@]12CCC(=O)C[C@@]13CCN(CC1CCCO1)[C@@H]2Cc1ccc(O)cc13` (stereo partly shown) [TR-5340, 3-Hydroxy-14-methoxy-17-tetrahydrofurfurylmorphinan-6-one] were 0.03 mg/kg, “pure analgesics” and “IA”.
In the case of `COc1ccc2c(c1)[C@]13CCN(CC4CC4)[C@H](C2)[C@]1(OC)CCC(=O)C3` [TR-5400, 17-Cyclopropylmethyl-3,14-dimethoxymorphinan-6-one], in the test on mice (subcutaneous, 15 min before acetic acid, dose reducing writhes by 50%), the “ED50 (Test A, acetic acid mouse writhing test)” value is 0.89 mg/kg. Further, the “AD50 (Test B, narcotic antagonist activity)” value with rats (setting [5]) turned out to be 0.64 mg/kg.
With `C[C@H]1[C@H]2Cc3ccc(O)cc3[C@]1(C)CCN2CC1CC1` [cyclazocine], the “analgesic / narcotic antagonist activity (literature)” value in test [2] was “mixed analgesic/narcotic antagonist activity”.
